Reference: patent publication US20150329498A1, “IRAK INHIBITORS AND USES THEREOF” (Nimbus Iris, Inc., priority 2014, published 2015)

What follows are compounds tested against T1, IRAK4 (Homo sapiens, UniProt Q9NWZ3) (assay: IRAK-4 activity inhibition assay (Caliper)). Conditions: 3.5 nM IRAK4, 1.5 μM Peptide 8, 37 μM ATP.
T1 construct: purchased CARNA Bioscience 09-145
T1 sequence (Q9NWZ3 1-460): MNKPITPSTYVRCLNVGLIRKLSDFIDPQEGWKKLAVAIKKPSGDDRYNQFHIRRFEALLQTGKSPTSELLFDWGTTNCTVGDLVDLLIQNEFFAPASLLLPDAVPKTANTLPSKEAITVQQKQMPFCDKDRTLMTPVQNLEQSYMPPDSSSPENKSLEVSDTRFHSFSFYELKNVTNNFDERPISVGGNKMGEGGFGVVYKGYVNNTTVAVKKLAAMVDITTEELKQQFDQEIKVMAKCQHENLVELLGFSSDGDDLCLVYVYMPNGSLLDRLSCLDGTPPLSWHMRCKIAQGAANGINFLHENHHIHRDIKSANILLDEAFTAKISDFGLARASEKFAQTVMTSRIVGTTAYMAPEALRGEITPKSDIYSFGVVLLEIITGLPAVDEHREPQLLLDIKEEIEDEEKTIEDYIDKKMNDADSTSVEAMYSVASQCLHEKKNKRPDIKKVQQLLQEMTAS
Type: biochemical
Method: A 1x kinase base buffer was prepared from 50 mM HEPES, pH 7.5 and 0.0015% Brij-35. A stop buffer was prepared from 100 mM HEPES, pH 7.5, 0.015% Brij-35, 0.2% Coating Reagent #3, and 50 mM EDTA.
Test compound was diluted to 50× of the final desired highest inhibitor concentration in reaction by 100% DMSO. 100 ul of this compound dilution was transferred to a well in a 96-well plate. For example, if desired highest inhibitor concentration in IC50 determination is 100 uM, then prepare 5000 uM of compound DMSO solution in this step.
Test compound was serially diluted by transferring 30 μl to 60 μl of 100% DMSO in the next well and so forth for a total of 10 concentrations. 100 μl of 100% DMSO was added to two empty wells for no compound control and no enzyme control in the same 96-well plate.
A new 96-well plate was marked as intermediate plate. 5 μl of compound serial dilution was transferred from source plate to the corresponding wells of the intermediate plate. 45 μl of 1x kinase base buffer (KB buffer) was added to each well of the intermediate plate. The intermediate plate was placed for 10 min on a shaker.
5 μl of each well was transferred from the 96-well intermediate plate to a 384-well plate in duplicates. For example, A1 of the 96-well plate is transferred to A1 and A2 of the 384-well plate. A2 of the 96-well plate is transferred to A3 and A4 of the 384-well plate, and so on.
IRAK4 and DTT in 1x kinase base buffer was added. The 2.5x enzyme mix contained 8.8 nM IRAK4 and 5 mM DTT.
Peptide 8, ATP, MgCl2 and MnCl2 were added in the 1x kinase base buffer. The 2.5x peptide mix contained 3.75 μM peptide 8, 92.5 μM ATP, 12.5 mM MgCl2 and 2.5 mM MnCl2.
Assay plate already contained 5 μl of compound in 10% DMSO. Added 10 μl of 2.5x enzyme solution to each well of the 384-well assay plate, except no enzyme control wells. The final concentration of IRAK4 in reaction was 3.5 nM. Added 10 μl of 1x kinase base buffer to no enzyme control wells in the assay plate. Incubated at room temperature for 10 min.
Added 10 μl of 2.5x peptide solution to each well of the 384-well assay plate. The final concentration of Peptide 8 and ATP was 1.5 μM and 37 μM, respectively. Incubated at for 40 minutes. Added 25 μl of stop buffer to stop reaction. Collected data on Caliper.
Copied conversion % data from Caliper program. Converted conversion % values to percent inhibition values. Percent inhibition=(max−conversion %)/(max−min)*100, where “max” means the conversion % of DMSO control and “min” means the conversion % of no enzyme control.
The compound numbers correspond to the compound numbers in Table 1. Compounds having an activity designated as “A” provided an IC50≦5 μM; compounds having an activity designated as “B” provided an IC50 of 5-20 μM; compounds having an activity designated as “C” provided an IC50 of 20-50 μM; and compounds having an activity designated as “D” provided an IC50≧50 μM. “NA” stands for “not assayed.”

| IC50 [µM] | Compound |
| --- | --- |
| ≤ 5 | O=C(O)/C=C/c1ccc2ncnc(N[C@H]3CC[C@H](N4CCOCC4)CC3)c2c1 [Compound I-55, (E)-3-(4-(((1 r,4r)-4-morpholinocyclohexyl)amino)quinazolin-6-yl)acrylic acid] |
| ≤ 5 | FC(F)(F)c1ccc2ncnc(N[C@H]3CC[C@H](N4CCOCC4)CC3)c2c1 [Compound I-12, N-((1r,4r)-4-morpholinocyclohexyl)-6-(trifluoromethyl)-quinazolin-4-amine] |
| ≤ 5 | NC(=O)c1ccc2ncnc(O[C@H]3CC[C@H](N4CCOCC4)CC3)c2c1 [Compound I-9, 4-(((1r,4r)-4-morpholinocyclohexyl)oxy)quinazoline-6-carboxamide] |
| ≤ 5 | OCC(O)c1ccc2ncnc(N[C@H]3CC[C@H](N4CCOCC4)CC3)c2c1 (some centres unmarked) [Compound I-21, 1-(4-(((1r,4r)-4-morpholinocyclohexyl)amino)quinazolin-6-yl)-ethane-1,2-diol] |
| ≤ 5 | COCCc1ccc2ncnc(N[C@H]3CC[C@H](N4CCOCC4)CC3)c2c1 [Compound I-33, 6-(2-methoxyethyl)-N-((1r,4r)-4-morpholinocyclohexyl)-quinazolin-4-amine] |
| ≤ 5 | CC1(C)CCN([C@H]2CC[C@H](Nc3ncnc4ccc(C#N)cc34)CC2)CC1 [Compound I-37, 4-(((1r,4r)-4-(4,4-dimethylpiperidin-1-yl)cyclohexyl)amino)-quinazoline-6-carbonitrile] |
| ≤ 5 | OCc1ccc2ncnc(O[C@H]3CC[C@H](N4CCOCC4)CC3)c2c1 [Compound I-19, (4-(((1r,4r)-4-morpholinocyclohexyl)oxy)quinazolin-6-yl)methanol] |
| ≤ 5 | CN(CC(=O)N1CCCC1)[C@H]1CC[C@H](Nc2ncnc3ccc(C#N)cc23)CC1 [Compound I-13, 4-(((1r,4r)-4-(methyl(2-oxo-2-(pyrrolidin-1-yl)ethyl)amino)-cyclohexyl)amino)quinazoline-6-carbonitrile] |
| ≤ 5 | c1ccc2c(N[C@H]3CC[C@H](N4CCOCC4)CC3)ncnc2c1 [Compound I-1, N-((1r,4r)-4-morpholinocyclohexyl)quinazolin-4-amine] |
| ≤ 5 | C=Cc1ccc2nccc(N[C@H]3CC[C@H](N4CCC5(CC4)CC5)CC3)c2c1 [Compound I-49, N-((1r,4r)-4-(6-azaspiro[2.5]octan-6-yl)cyclohexyl)-6-vinylquino-lin-4-amine] |
| ≤ 5 | C=Cc1ccc2ncnc(N[C@H]3CC[C@H](N4CCC(C)(C)CC4)CC3)c2c1 [Compound I-43, N-((1r,4r)-4-(4,4-dimethylpiperidin-1-yl)cyclohexyl)-6-vinyl-quinazolin-4-amine] |
| ≤ 5 | CCc1ccc2ncnc(N[C@H]3CC[C@H](N4CCC(C)(C)CC4)CC3)c2c1 [Compound I-45, N-((1r,4r)-4-(4,4-dimethylpiperidin-1-yl)cyclohexyl)-6-ethylquina-zolin-4-amine] |
| ≤ 5 | OCc1ccc2ncnc(N[C@H]3CC[C@H](N4CCOCC4)CC3)c2c1 [Compound I-23, (4-(((1r,4r)-4-morpholinocyclohexyl)amino)quinazolin-6-yl)methanol] |
| ≤ 5 | Cc1cc(Nc2nc(N[C@H]3CC[C@H](N4CCOCC4)CC3)c3cc(C#N)ccc3n2)sn1 [Compound I-61, 2-((3-methylisothiazol-5-yl)amino)-4-(((1r,4r)-4-morpholino-cyclohexyl)amino)quinazoline-6-carbonitrile] |
| ≤ 5 | Brc1ccc2ncnc(O[C@H]3CC[C@H](N4CCOCC4)CC3)c2c1 [Compound I-4, 4-((1r,4r)-4-((6-bromoquinazolin-4-yl)oxy)cyclohexyl)morpholine] |
| ≤ 5 | COCc1ccc2ncnc(N[C@H]3CC[C@H](N4CCOCC4)CC3)c2c1 [Compound I-32, 6-(methoxymethyl)-N-((1r,4r)-4-morpholinocyclohexyl)quina-zolin-4-amine] |
| ≤ 5 | N#Cc1ccc2nccc(N[C@H]3CC[C@H](N4CCC5(CC4)CC5)CC3)c2c1 [Compound I-48, 4-(((1r,4r)-4-(6-azaspiro[2.5]octan-6-yl)cyclohexyl)-amino)quinoline-6-carbonitrile] |
| ≤ 5 | CCc1ccc2ncnc(O[C@H]3CC[C@H](N4CCOCC4)CC3)c2c1 [Compound I-18, 4-((1r,4r)-4-((6-ethylquinazolin-4-yl)oxy)cyclohexyl) morpholine] |
| ≤ 5 | OCC(O)c1ccc2ncnc(O[C@H]3CC[C@H](N4CCOCC4)CC3)c2c1 (some centres unmarked) [Compound I-17, 1-(4-(((1r,4r)-4-morpholinocyclohexyl)oxy)quinazolin-6-yl)ethane-1,2-diol] |
| ≤ 5 | Cn1cc(-c2ccc3ncnc(N[C@H]4CC[C@H](N5CCOCC5)CC4)c3c2)cn1 [Compound I-60, 6-(1-methyl-1H-pyrazol-4-yl)-N-((1r,4r)-4-morpholinocyclo-hexyl)quinazolin-4-amine] |
| ≤ 5 | N#Cc1ccc2ncnc(O[C@H]3CC[C@H](N4CCOCC4)CC3)c2c1 [Compound I-8, 4-(((1r,4r)-4-morpholinocyclohexyl)oxy)quinazoline-6-carbonitrile] |
| ≤ 5 | N#CCCc1ccc2ncnc(N[C@H]3CC[C@H](N4CCOCC4)CC3)c2c1 [Compound I-51, 3-(4-(((1r,4r)-4-morpholinocyclohexyl)amino)quinazolin-6-yl)propanenitrile] |
| ≤ 5 | FC(F)(F)c1ccc2ncnc(O[C@H]3CC[C@H](N4CCOCC4)CC3)c2c1 [Compound I-6, 4-((1r,4r)-4-((6-(trifluoromethyl)quinazolin-4-yl)oxy)cyclohexyl)-morpholine] |
| ≤ 5 | CC(C)(O)/C=C/c1ccc2ncnc(N[C@H]3CC[C@H](N4CCOCC4)CC3)c2c1 [Compound I-57, (E)-2-methyl-4-(4-(((1r,4r)-4-morpholinocyclohexyl)amino)quina-zolin-6-yl)but-3-en-2-ol] |
| ≤ 5 | NC(=O)CCc1ccc2ncnc(N[C@H]3CC[C@H](N4CCOCC4)CC3)c2c1 [Compound I-50, 3-(4-(((1r,4r)-4-morpholinocyclohexyl)amino)quinazolin-6-yl)propanamide] |
| ≤ 5 | OC/C=C\c1ccc2ncnc(N[C@H]3CC[C@H](N4CCOCC4)CC3)c2c1 [Compound I-42, (Z)-3-(4-(((1r,4r)-4-morpholinocyclohexyl)amino)quinazolin-6-yl)prop-2-en-1-ol] |
